Test results: patent publication US10071090B2 (priority 2014, dated 2018)

Columns and labels:
[1] = in vivo, po; cited from earlier work
[2] = Solubility of oxymorphone in adhesive systems; assay type: physicochemical; conditions: in general
From the text: A variety of adhesive systems, enhancers and cosolvents were employed to observe permeation differences within these systems. In general, solubility in acrylic adhesives (i.e. Duro-Tak®) was higher, and thus the driving force out of the patch would be relatively lower. Solubility in silicone adhesives was lower and thus provided a much higher driving constant out of the formulation and into the skin; however, due to the relatively lower solubility, a solubility enhancer that also assisted in solubilising the skin was utilized.

Row | SMILES | Bioavailability [1] [%] | Solubility in silicone adhesives ([2]; compared with acrylic adhesives) | solubility in acrylic adhesives (i.e. Duro-Tak®) ([2]; compared with silicone adhesives)
1 | COc1ccc2c3c1O[C@H]1C(=O)CC[C@@]4(O)[C@@H](C2)N(C)CC[C@]314 [Oxycodone] | 87 | – | –
2 | CN1CC[C@]23c4c5ccc(O)c4O[C@H]2C(=O)CC[C@@]3(O)[C@H]1C5 [Oxymorphone] | 10 | lower | higher
3 | COc1ccc2c3c1O[C@H]1C(=O)CC[C@H]4[C@@H](C2)N(C)CC[C@]314 [Hydrocodone] | 80 | – | –
